# In patent publication US20120046333A1, “Methods and Compositions of PI-3 Kinase Inhibitors for Treating Fibrosis” (Oncothyreon Incorporated, priority 2009, published 2012):
# Entries after “also recorded” stand apart in the source; their conditions may differ.
# How the values were obtained:
# [1] = aqueous solutions at 37° C. or 0° C. at neutral pH; cited from earlier work
# [2] = tested on: phosphorylated Akt (P-Akt) Ser 473; assay: Western blot of TGFα-induced phosphorylation of Akt in lung homogenates; type: in vivo; settings: 1 day of Dox, PX-866 pretreatment 3 mg/kg by gavage, vs vehicle-treated transgenic mice
# Text: (§1) CCSP-rtTA activator mice expressing the reverse tetracycline-responsive transactivator (rtTA) under control of the 2.3-kb rat Clara Cell Secretory Protein (CCSP), a.k.a. secretoglobin, family 1A, member 1 (Scgblal) gene promoter were mated to conditional doxycycline (Dox) regulated transgenic mice containing the human TGFα cDNA under the control of seven copies of the tetracycline operon ((TetO)7-cmv TGFα) plus a minimal CMV promoter. Single transgenic (CCSP-rtTA+/−) and bitransgenic CCSP-rtTA+/−/(TetO)7-cmv TGFα+/− mice were produced within the same litter by mating homozygous CCSP-rtTA+/+ mice to hemizygous (TetO)?-cmv TGFα+/− mice. All mice were derived from the FVB/NJ inbred strain. Mice were maintained in virus-free containment. […]
# Western Blots: Western blot analysis was performed on lung homogenates as previously described. Blots were incubated with antibodies against total and phosphorylated Akt (Ser 473 and Thr 308, Cell Signaling Technology) and quantified using the volume integration function on a PhosphorImager software Imagequant 5.2 (Molecular Dynamics, Sunnyvale, Calif.).
# PX-866 inhibits TGFα-Induced Phosphorylation of Akt: CCSP-rtTA/otet-TGFαmice were treated with 1 day of Dox to induce TGFα expression. Phosphorylated Akt (P-Akt) levels for Ser 473 as measured by Western blot analysis increased over 5-fold compared to Dox-treated control mice.
# [3] = tested on: CCSP-rtTA/otet-TGFα transgenic mice; assay: Prevention of TGFα-induced pulmonary fibrosis, PX-866 given at initiation of TGFα induction; type: in vivo; settings: 4 weeks of Dox, PX-866 from initiation of TGFα induction
# Text: as §1, with “strain.” for “strain. Mice were maintained in virus-free containment.”
# (§2) Lung Histology, Immunostaining and Total Lung Collagen: Lungs were inflation fixed as previously described. […] Total lung collagen was determined by quantifying total soluble collagen (Sircol Collagen Assay, Biocolor, Ireland) as previously described.
# (§3) Pulmonary Mechanics: Lung mechanics were assessed on mice with a computerized Flexi Vent system (SCIREQ, Montreal, Canada). […] The ventilation mode was changed to forced oscillatory signal (0.5-19.6 Hz), and respiratory impedance was measured. […]
# (§4) Statistics: Means (+/−SEM) were calculated and plotted for each variable, by mouse group (CCSP/-Vehicle, CCSP/TGFα Vehicle, CCSP/TGFα PX-866). Data were assessed for normality using plots and the Shapiro-Wilk test. […]
# [4] = tested on: CCSP-rtTA/otet-TGFα transgenic mice; assay: Progression of established TGFα-induced pulmonary fibrosis, PX-866 given after 4 weeks of Dox; type: in vivo; settings: 8 weeks of Dox
# Text: CCSP-rtTA activator mice expressing the reverse tetracycline-responsive transactivator (rtTA) under control of the 2.3-kb rat Clara Cell Secretory Protein (CCSP), a.k.a. secretoglobin, family 1A, member 1 (Scgblal) gene promoter were mated to conditional doxycycline (Dox) regulated transgenic mice containing the human TGFα cDNA under the control of seven copies of the tetracycline operon ((TetO)7-cmv TGFα) plus a minimal CMV promoter. Single transgenic (CCSP-rtTA+/−) and bitransgenic CCSP-rtTA+/−/(TetO)7-cmv TGFα+/− mice were produced within the same litter by mating homozygous CCSP-rtTA+/+ mice to hemizygous (TetO)?-cmv TGFα+/− mice. All mice were derived from the FVB/NJ inbred strain. Mice were maintained in virus-free containment. All animal protocols were reviewed and approved by the Institutional Animal Use and Care Committee of the Cincinnati Children's Hospital Research Foundation. To induce TGFα expression, Dox (Sigma, St. Louis, Mo.) was administered in the drinking water at a final concentration of 0.5 mg/ml and in food (62.5 mg/kg). Water was replaced three times per week. Mice were genotyped as known in the art.
# The PI3K inhibitor PX-866 (ProIX Pharmaceuticals, Tucson, Ariz.) was suspended into 5% EtOH to make a 5 mg/ml stock solution. Three hours prior to administration, food and water were removed from cages. Mice were then anesthetized (Isoflurane; Abbott Labs, Chicago, Ill.), and sterile vehicle or drug (3 mg/kg) was administered by gavage using a 20 gauge feeding catheter (Harvard Apparatus, Holliston, Mass.). Mice were treated with vehicle or PX-866 every other day for up to 4 weeks. Mice were killed with pentobarbital sodium (65 mg/ml) euthanasia solution (Fort Dodge Animal Health, Fort Dodge, Iowa) 1 day or 4 weeks after Dox and vehicle or PX-866 treatment.
# as §2, §3, §4
# Weights of mice in four different groups were measured at Baseline and at evenly spaced intervals during the next eight weeks, once per week. […] Differences in selected (a priori) Group*Time means were calculated and tested using a simulation-based adjustment for multiple comparisons. […]
# [5] = PX-866 from 4 weeks after TGFα induction
smiles,measurement,setting,value
COC[C@H]1OC(=O)c2coc3c2[C@@]1(C)C1=C(C3=O)[C@@H]2CCC(=O)[C@@]2(C)C[C@H]1OC(C)=O [Wortmannin],stability in aqueous solution,[1],subject to decomposition by hydrolytic opening of the furan ring
C=CCN(/C=C1/C(=O)O[C@H](COC)[C@@]2(C)C1=C(O)C(=O)C1=C2[C@H](OC(C)=O)C[C@]2(C)C(=O)CC[C@@H]12)CC=C [PX-866],"TGFα-induced phosphorylation of Akt (P-Akt, Ser 473)",[2],prevented TGFα-induced increases in P-Akt; also recorded: prevented increased phosphorylation of Akt
same,"lung mechanics (airway resistance, airway and tissue elastance, compliance)",[3],"did not show any differences in lung mechanics; also recorded: prevented increases in airway resistance, airway and tissue elastance, and decreases in compliance"
same,lung fibrosis by histology,[4]; [5],reduced pleural fibrosis as well as reduced perivascular and peribronchial fibrosis; also recorded: reduced fibrosis on lung histology; also recorded: attenuation of fibrosis
same,"lung mechanics (airway resistance, airway and tissue elastance, compliance)",[4]; [5],"significantly improved compared with vehicle-treated mice; also recorded: improved lung mechanics; also recorded: reduced increases in airway resistance, and airway and tissue elastance, and decreases in compliance"
same,total lung collagen,[4]; [5],reduced lung collagen levels; also recorded: unchanged compared with mice taken off Dox after 4 weeks
same,body weight,[4]; PX-866 from beginning of week 5,prevented further body weight loss; also recorded: normalization of body weights; also recorded: did not have changes in body weight
